Measured values as given in patent US20250084044A1, “PROTOPORPHYRINOGEN OXIDASE INHIBITORS” (Enko Chem, Inc., priority 2022, published 2025).

Tests used:
Format in all cases: in vivo
Kochia scoparia (KCHSC) [1] = test: Post-emergence herbicidal activity, KCHSC; details: 7 days after treatment, Table 3b
Protocol: (§1) Selected compounds of the invention were screened at 100 PPM against Amaranthus retroflexus (AMARE), Echinochloa crus-galli (ECHCG), Kochia scoparia (KCHSC), and Setaria italica (SETIT).
(§2) Accordingly, PPO susceptible weed seeds were sown in 5″ 5″ pots by quadrant containing Miracle-Gro potting mix (Scotts Miracle-Gro Company, Marysville, OH, USA) and grown in a Conviron growth chamber with appropriate growth conditions (temperature of 26/22° C. with photoperiod 16/8 h light day/night and light intensity of […] supplemented by LED lamps). Relative humidity in the growth chamber was maintained at around 65%. Plants were grown until 2-4 leaf stage and thinned to 5-8 plants per quadrant per species.
(§3) Compounds were formulated in 25% Acetone, 1% Crop oil concentrate (COC-Agridex), 0.1% Tween-20, and 2.5% Ammonium sulphate (AMS). Three replicate pots were treated with each compound. Treatment consisting of the above formulation excluding active compound was applied as a treatment control (TC). Plants were treated with the test compound solution in a laboratory spray chamber fitted with 8003 flat fan nozzles calibrated to deliver 187-200 L ha^−1 at 269 kPa. Plants were placed back in the growth chamber and evaluated for % visual injury compared to TC 7 days after treatment (DAT). The data presented in Table 3 indicate a percentage control, where 100% control indicates complete inhibition of growth.

[2] = tested on: Amaranthus retroflexus (AMARE); test: Pre-emergence herbicidal activity, AMARE; details: 7 days after treatment
From the text: (§4) Selected compounds of the invention were screened at 200 PPM against Amaranthus retroflexus (AMARE). Echinochloa crus-galli (ECHCG). Kochia scoparia (KCHSC), and Selaria italica (SETIT).
(§5) Accordingly, PPO susceptible weed seeds were planted in 5″×5″ pots by quadrant containing custom field soil mix (Sandy loam with 4.7% OM, pH 7.0) and covered with a fine layer of the same soil. Compounds were formulated in 25% Acetone, 1% Crop oil concentrate (COC-Agridex), 0.1% Tween-20, and 2.5% Ammonium sulphate (AMS). Three replicate pots were treated with each compound. Treatment consisting of the above formulation excluding active compound was applied as a treatment control (TC). Pots were treated with the test compound solution in a laboratory spray chamber fitted with 8003 flat fan nozzles calibrated to deliver 187-200 L ha^−1 at 269 kPa. Compound was incorporated into the soil by simulating rainfall equivalent to 0.2 mm using the same track sprayer. Subsequently, pots were irrigated from the bottom until assessed for % growth and germination inhibition. Pots were placed back in the growth chamber and evaluated for % growth and germination inhibition compared to TC 7 days after treatment (DAT). Growth conditions are similar to the ones mentioned in POST emergence assay.
(§6) The data presented in Table 4 indicate a percentage control, where 100% control indicates complete inhibition of growth.

[3] = tested on: Echinochloa crus-galli (ECHCG); test: Pre-emergence herbicidal activity, ECHCG; details: 7 days after treatment
From the text: as §4, §5, §6

[4] = tested on: Echinochloa crus-galli (ECHCG); test: Post-emergence herbicidal activity, ECHCG; details: 7 days after treatment
Protocol: (§7) Selected compounds of the invention were screened at 100 PPM against Amaranthus retroflexus (AMARE), Setaria italica (SETIT), and Echinochloa crus-galli (ECHCG). […]
as §3, with “growth. […]” for “growth.”

Kochia scoparia (KCHSC) [5] = test: Pre-emergence herbicidal activity, KCHSC; details: 7 days after treatment
From the text: as §4, §5, §6

Setaria italica (SETIT) [6] = test: Post-emergence herbicidal activity, SETIT; details: 7 days after treatment
Protocol: Selected compounds of the invention were screened at 100 PPM against Amaranthus retroflexus (AMARE), Setaria italica (SETIT), and Echinochloa crus-galli (ECHCG).
Accordingly, PPO susceptible weed seeds were sown in 5″×5″ pots by quadrant containing Miracle-Gro potting mix (Scotts Miracle-Gro Company, Marysville, OH. USA) and grown in a Conviron growth chamber with appropriate growth conditions (temperature of 26/22° C. with photoperiod 16/8 h light day/night and light intensity of 300 μmol m^−2 s^−1 supplemented by LED lamps). Relative humidity in the growth chamber was maintained at around 65%. Plants were grown until 2-4 leaf stage and thinned to 5-8 plants per quadrant per species.
as §3, §1, §2

[7] = tested on: Amaranthus retroflexus (AMARE); test: Post-emergence herbicidal activity, AMARE; details: 7 days after treatment
Protocol: as §7
as §3, with “growth. […]” for “growth.”

Setaria italica (SETIT) [8] = test: Pre-emergence herbicidal activity, SETIT; details: 7 days after treatment
From the text: as §4, §5, §6

COC(=O)CCN(C)C(=O)CN1C(=O)C(F)(F)Oc2cc(F)c(-c3c(F)c(F)c(F)c(F)c3F)cc21 [Compound 80, methyl 3-(N-methyl-2-(2,2,7-trifluoro-3-oxo-6-(perfluorophenyl)-2,3-dihydro-4H-benzo[b][1,4]oxazin-4-yl)acetamido)propanoate]
Post-emergence (100 ppm) KCHSC (Kochia scoparia (KCHSC) [1]): 20%
Pre-emergence (200 ppm) AMARE [2]: 98%
Pre-emergence (200 ppm) ECHCG [3]: 0%
Post-emergence (100 ppm) ECHCG ([4]; 100 ppm, Table 3b): 75%
pest or weed control at 100 ppm ([4]; Echinochloa crus-galli, 168 h, 100 PPM, Table 3a): 75%
Pre-emergence (200 ppm) KCHSC (Kochia scoparia (KCHSC) [5]): 0%
Post-emergence (100 ppm) SETIT (Setaria italica (SETIT) [6]; 100 ppm, Table 3b): 93%
pest or weed control at 100 ppm (Setaria italica (SETIT) [6]; Setaria italica, 168 h, 100 PPM, Table 3a): 93%
Post-emergence (100 ppm) AMARE ([7]; 100 ppm, Table 3b): 100%
pest or weed control at 100 ppm ([7]; Amaranthus retroflexus, 168 h, 100 PPM, Table 3a): 100%
Pre-emergence (200 ppm) SETIT (Setaria italica (SETIT) [8]): 3%
